Test results published in patent publication US20050043374A1, “Aryl substituted oxazolidinones with antibacterial activity” (priority 2001, published 2005).
≈ marks a conversion by molar mass, not a printed value.

How the values were obtained:
Assay type in all cases: cell-based
Streptococcus pyogenes = assay: MIC, agar with 5% defibrinated horse blood, streptococci; settings: 10^4 CFU/spot, 37° C., 5% carbon dioxide, 48 hours
Description: (§1) The following results were obtained on a standard in-vitro test system. The activity is described in terms of the minimum inhibitory concentration (MIC) determined by the agar-dilution technique with an inoculum size of 10^4 CFU/spot. Typically, compounds are active in the range 0.01 to 256 μg/ml.
(§2) Streptococci and enterococci were tested on agar supplemented with 5% defibrinated horse blood, an inoculum of 10^4 CFU/spot and an incubation temperature of 37° C. in an atmosphere of 5% carbon dioxide for 48 hours—blood is required for the growth of some of the test organisms. Fastidious Gram negative organisms were tested in Mueller-Hinton broth, supplemented with hemin and NAD, grown aerobically for 24 hours at 37° C., and with an innoculum of 5×10^4 CFU/well.

Streptococcus pneumoniae = assay: as above; settings: 10^4 CFU/spot, 37° C., 5% carbon dioxide, 48 hours
Description: as §1, §2

Haemophilus influenzae = assay: MIC, Mueller-Hinton broth with hemin and NAD, fastidious Gram negative organisms; settings: aerobic, 24 hours, 37° C., 5×10^4 CFU/well
Description: as §1, §2

Moraxella catarrhalis = assay: as above; settings: aerobic, 24 hours, 37° C., 5×10^4 CFU/well
Description: as §1, §2

[1] = test system: Staphylococcus aureus MRQR (methicillin resistant and quinolone resistant); assay: MIC, agar dilution, staphylococci; settings: inoculum 10^4 CFU/spot, 37° C., 24 hours
Description: as §1
(§3) Staphylococci were tested on agar, using an inoculum of 10^4 CFU/spot and an incubation temperature of 37° C. for 24 hours—standard test conditions for the expression of methicillin resistance.

[2] = test system: Staphylococcus aureus MSQS (methicillin sensitive and quinolone sensitive); assay: MIC, agar dilution, staphylococci; settings: inoculum 10^4 CFU/spot, 37° C., 24 hours
Description: as §1, §3

With N#Cc1nnc(-c2ccc(N3C[C@H](Cn4ccnn4)OC3=O)cc2F)s1 [Example 1, (5R)-3-(3-Fluoro-4-(5-cyano-1,3,4-thiadiazol-2-yl)phenyl)-5-(1H-1,2,3-triazol-1-ylmethyl)-1,3-oxazolidin-2-one] as the compound, how does the MIC (Streptococcus pyogenes) read?
The MIC was 0.125 µg/mL (≈ 0.337 µM).

What about the MIC (Streptococcus pneumoniae) of the same compound?
The MIC was 0.125 µg/mL (≈ 0.337 µM).

What about the MIC (Haemophilus influenzae) of the same compound?
Its MIC is 2 µg/mL (≈ 5.39 µM).

What about the MIC (Moraxella catarrhalis) of the same compound?
Its MIC is 0.5 µg/mL (≈ 1.35 µM).

And the MIC [1]?
The MIC was 0.25 µg/mL (≈ 0.673 µM).

And the MIC [2]?
The MIC was 0.125 µg/mL (≈ 0.337 µM).
